Data published in US20240343681A1, “MOLECULES HAVING PESTICIDAL UTILITY AND INTERMEDIATES AND PROCESSES RELATED THERETO” (priority 2021, published 2024).

Key:
[1] = tested on: Yellow Fever Mosquito (Aedes aegypti, AEDSAE) larvae; experiment: Bioassay on yellow fever mosquito (YFM), 96-well plate larval assay; type: in vivo; conditions: 4000 ppm (master plate solution), about 1 day-old larvae, 3 days
Protocol: Example B: Bioassays on Yellow Fever Mosquito (Aedes aegypti, AEDSAE) (“YFM”)
Master plates containing 400 μg of a molecule dissolved in 100 μL of dimethyl sulfoxide (DMSO) (equivalent to a 4000 ppm solution) are used. A master plate of assembled molecules contains 15 μL per well. To this plate, 135 μL of a 90:10 water/acetone mixture is added to each well. A robot (Biomek® NXP Laboratory Automation Workstation) is programmed to dispense 15 μL aspirations from the master plate into an empty 96-well shallow plate (“daughter” plate). There are 6 reps (“daughter” plates) created per master. The created “daughter” plates are then immediately infested with YFM larvae.
The day before plates are to be treated, mosquito eggs are placed in Millipore water containing liver powder to begin hatching (4 g into 400 mL). After the “daughter” plates are created using the robot, they are infested with 220 μL of the liver powder/larval mosquito mixture (about 1 day-old larvae). After plates are infested with mosquito larvae, a non-evaporative lid is used to cover the plate to reduce drying. Plates are held at room temperature for 3 days prior to grading. After 3 days, each well is observed and scored based on mortality.

[2] = tested on: Beet Armyworm (Spodoptera exigua, LAPHEG) second instar larva; experiment: Bioassay on beet armyworm (BAW), 128-well diet tray assay; type: in vivo; conditions: 50 μg/cm^2 on artificial diet, 25° C., five days
Summary of the method: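 Test molecule in 90:10 acetone–water applied at 50 μg/cm^2 onto 1 mL artificial diet and dried; one second-instar larva per well, eight wells. Held 5 days at 25 °C, 14:10 light–dark; percent mortality averaged over the eight wells.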

| SMILES | activity against YFM (scored based on mortality) [1] | activity against BAW (percent mortality, averaged over eight wells) [2] |
| --- | --- | --- |
| O=C(Nc1cc(NC(=O)[C@H]2[C@H](c3cc(Cl)cc(Cl)c3)C2(Cl)Cl)ccc1Cl)c1cccc(F)c1F (racemic) [F68, trans-rac-N-(2-Chloro-5-(2,2-dichloro-3-(3,5-dichlorophenyl)cyclopropane-1-carboxamido)phenyl)-2,3-difluorobenzamide] | exhibited activity | exhibited activity |
| O=C(Nc1cc(NC(=O)[C@H]2[C@H](c3cc(Cl)cc(Cl)c3)C2(Cl)Cl)ccc1Cl)c1cc(F)ccc1F (racemic) [F69, trans-rac-N-(2-Chloro-5-(2,2-dichloro-3-(3,5-dichlorophenyl)cyclopropane-1-carboxamido)phenyl)-2,5-difluorobenzamide] | exhibited activity | exhibited activity |
| N#Cc1ccc(C(=O)Nc2cc(NC(=O)[C@H]3[C@H](c4cc(Cl)cc(Cl)c4)C3(Cl)Cl)ccc2Cl)cc1 (racemic) [F70, trans-rac-N-(2-Chloro-5-(2,2-dichloro-3-(3,5-dichlorophenyl)cyclopropane-1-carboxamido)phenyl)-4-cyanobenzamide] | exhibited activity | exhibited activity |
| N#Cc1ccc(C(=O)Nc2cc(NC(=O)[C@H]3[C@H](c4cc(Cl)cc(Cl)c4)C3(Cl)Cl)ccc2Cl)c(F)c1 (racemic) [F71, trans-rac-N-(2-Chloro-5-(2,2-dichloro-3-(3,5-dichlorophenyl)cyclopropane-1-carboxamido)phenyl)-4-cyano-2-fluorobenzamide] | exhibited activity | exhibited activity |
| N#Cc1ccc(C(=O)Nc2cc(NC(=O)[C@H]3[C@H](c4cc(Cl)cc(Cl)c4)C3(Cl)Cl)ccc2Cl)cc1F (racemic) [F72, trans-rac-N-(2-Chloro-5-(2,2-dichloro-3-(3,5-dichlorophenyl)cyclopropane-1-carboxamido)phenyl)-4-cyano-3-fluorobenzamide] | exhibited activity | exhibited activity |
| Cc1cccc(C(=O)Nc2cc(NC(=O)[C@H]3[C@H](c4cc(Cl)cc(Cl)c4)C3(Cl)Cl)ccc2Cl)c1 (racemic) [F74, trans-rac-N-(2-Chloro-5-(2,2-dichloro-3-(3,5-dichlorophenyl)cyclopropane-1-carboxamido)phenyl)-3-methylbenzamide] | exhibited activity | exhibited activity |
| Cc1ccc(C(=O)Nc2cc(NC(=O)[C@H]3[C@H](c4cc(Cl)cc(Cl)c4)C3(Cl)Cl)ccc2Cl)cc1 (racemic) [F75, trans-rac-N-(2-Chloro-5-(2,2-dichloro-3-(3,5-dichlorophenyl)cyclopropane-1-carboxamido)phenyl)-4-methylbenzamide] | exhibited activity | exhibited activity |
| Cc1cc(F)ccc1C(=O)Nc1cc(NC(=O)[C@H]2[C@H](c3cc(Cl)cc(Cl)c3)C2(Cl)Cl)ccc1Cl (racemic) [F77, trans-rac-N-(2-Chloro-5-(2,2-dichloro-3-(3,5-dichlorophenyl)cyclopropane-1-carboxamido)phenyl)-4-fluoro-2-methylbenzamide] | exhibited activity | exhibited activity |
| O=C(Nc1cc(NC(=O)[C@H]2[C@H](c3cc(Cl)cc(Cl)c3)C2(Cl)Cl)ccc1Cl)c1ccccc1Cl (racemic) [F78, trans-rac-2-Chloro-N-(2-chloro-5-(2,2-dichloro-3-(3,5-dichlorophenyl)cyclopropane-1-carboxamido)phenyl)benzamide] | exhibited activity | exhibited activity |
| O=C(Nc1cc(NC(=O)[C@H]2[C@H](c3cc(Cl)cc(Cl)c3)C2(Cl)Cl)ccc1Cl)c1ccc(Cl)cc1 (racemic) [F79, trans-rac-4-Chloro-N-(2-chloro-5-(2,2-dichloro-3-(3,5-dichlorophenyl)cyclopropane-1-carboxamido)phenyl)benzamide] | exhibited activity | exhibited activity |
| O=C(Nc1cc(NC(=O)[C@H]2[C@H](c3cc(Cl)cc(Cl)c3)C2(Cl)Cl)ccc1Cl)c1cc(Cl)cc(Cl)c1 (racemic) [F80, trans-rac-3,5-Dichloro-N-(2-chloro-5-(2,2-dichloro-3-(3,5-dichlorophenyl)cyclopropane-1-carboxamido)phenyl)benzamide] | exhibited activity | exhibited activity |
| O=C(Nc1cc(NC(=O)[C@H]2[C@H](c3cc(Cl)cc(Cl)c3)C2(Cl)Cl)ccc1Cl)c1ccc(C(F)(F)F)cc1 (racemic) [F82, trans-rac-N-(2-Chloro-5-(2,2-dichloro-3-(3,5-dichlorophenyl)cyclopropane-1-carboxamido)phenyl)-4-(trifluoromethyl)benzamide] | exhibited activity | exhibited activity |
| O=C(Nc1cc(NC(=O)[C@H]2[C@H](c3cc(Cl)cc(Cl)c3)C2(Cl)Cl)ccc1Cl)c1ccc(F)c(C(F)(F)F)c1 (racemic) [F83, trans-rac-N-(2-Chloro-5-(2,2-dichloro-3-(3,5-dichlorophenyl)cyclopropane-1-carboxamido)phenyl)-4-fluoro-3-(trifluoromethyl)benzamide] | exhibited activity | exhibited activity |
| COc1cccc(C(=O)Nc2cc(NC(=O)[C@H]3[C@H](c4cc(Cl)cc(Cl)c4)C3(Cl)Cl)ccc2Cl)c1 (racemic) [F84, trans-rac-N-(2-Chloro-5-(2,2-dichloro-3-(3,5-dichlorophenyl)cyclopropane-1-carboxamido)phenyl)-3-methoxybenzamide] | exhibited activity | exhibited activity |
| COc1ccc(C(=O)Nc2cc(NC(=O)[C@H]3[C@H](c4cc(Cl)cc(Cl)c4)C3(Cl)Cl)ccc2Cl)cc1 (racemic) [F85, trans-rac-N-(2-Chloro-5-(2,2-dichloro-3-(3,5-dichlorophenyl)cyclopropane-1-carboxamido)phenyl)-4-methoxybenzamide] | exhibited activity | exhibited activity |
| O=C(COCC(F)(F)F)Nc1c(F)ccc(NC(=O)[C@H]2[C@H](c3ccc(F)c(C(F)(F)F)c3)C2(Cl)Cl)c1F (racemic) [F95, trans-rac-2,2-Dichloro-N-(2,4-difluoro-3-(2-(2,2,2-trifluoroethoxy)acetamido)phenyl)-3-(4-fluoro-3-(trifluoromethyl)phenyl)cyclopropane-1-carboxamide] | exhibited activity | exhibited activity |
| O=C(Nc1cc(NC(=O)[C@H]2[C@H](c3ccc(F)c(C(F)(F)F)c3)C2(Cl)Cl)ccc1Cl)c1ccc(NC(=O)C(F)F)cc1F (racemic) [F111, trans-rac-N-(2-Chloro-5-(2,2-dichloro-3-(4-fluoro-3-(trifluoromethyl)phenyl)cyclopropane-1-carboxamido)phenyl)-4-(2,2-difluoroacetamido)-2-fluorobenzamide] | exhibited activity | exhibited activity |
| O=C(Nc1cc(NC(=O)[C@H]2[C@H](c3ccc(F)c(C(F)(F)F)c3)C2(Cl)Cl)ccc1Cl)c1ccc(NC(=O)C(F)(F)F)cc1F (racemic) [F112, trans-rac-N-(2-Chloro-5-(2,2-dichloro-3-(4-fluoro-3-(trifluoromethyl)phenyl)cyclopropane-1-carboxamido)phenyl)-2-fluoro-4-(2,2,2-trifluoroacetamido)benzamide] | exhibited activity | exhibited activity |
| CC(=O)Nc1ccc(C(=O)Nc2cc(NC(=O)[C@H]3[C@H](c4ccc(F)c(C(F)(F)F)c4)C3(Cl)Cl)ccc2Cl)c(C)c1F (racemic) [F113, trans-rac-4-Acetamido-N-(2-chloro-5-(2,2-dichloro-3-(4-fluoro-3-(trifluoromethyl)phenyl)cyclopropane-1-carboxamido)phenyl)-3-fluoro-2-methylbenzamide] | exhibited activity | exhibited activity |
| Cc1c(C(=O)Nc2cc(NC(=O)[C@H]3[C@H](c4ccc(F)c(C(F)(F)F)c4)C3(Cl)Cl)ccc2Cl)ccc(NC(=O)CC(F)(F)F)c1F (racemic) [F114, trans-rac-N-(2-Chloro-5-(2,2-dichloro-3-(4-fluoro-3-(trifluoromethyl)phenyl)cyclopropane-1-carboxamido)phenyl)-3-fluoro-2-methyl-4-(3,3,3-trifluoropropanamido)benzamide] | exhibited activity | exhibited activity |
